How the values were obtained:
[1] = biological target: T1, GlunN1/GluN2A glutamate receptors (Homo sapiens, UniProt Q05586+Q12879); experiment: Whole-cell patch clamp of mammalian cells (Ionworks Barracuda), positive allosteric modulation (PAM) of NMDA receptor, 2A; type: cell-based; details: for Avg Emax 2A (%) / EC50: HEK293 cells; for Avg Emax 2A (%) / Emax: % activation of current elicited with EC20 L-glutamate and 30 µM glycine; for EC50: co-application with EC20 L-glutamate and 30 µM glycine, 8-point concentration-response; for Emax: HEK293, HEK293 cells
T1 construct: expressed in transfected cells
Description: (§1) The measurements were perfomed using Ion Works Barracuda platform following this procedure: • Electrophysiological Procedures: • a) Intracellular solution (mM): 50 mM CsCl, 90 mM CsF, 2 mM MgCl2, 5 mM EGTA, 10 mM HEPES. Adjust to pH 7.2 with CsOH. • b) Extracellular solution, HB-PS (composition in mM): NaCl, 137; KCl, 1.0; CaCl2, 5; HEPES, 10; Glucose, 10; pH adjusted to 7.4 with NaOH (refrigerated until use). • c) Holding potential: -70 mV, potential during agonist/PAM application: -40 mV. • Recording procedure: • a) Extracellular buffer will be loaded into the PPC plate wells (11 µL per well). Cell suspension will be pipetted into the wells (9 µL per well) of the PPC planar electrode. • b) Whole-cell recording configuration will be established via patch perforation with membrane currents recorded by on-board patch clamp amplifiers. • c) Two recordings (scans) will be performed. First, during pre-application of test article alone (duration of pre-application - 5 min) and second, during test articles and agonist (EC20 L-glutamate and 30 µM glycine) co-application to detect positive modulatory effects of the test article.
(§2) Test Article Administration: The first pre-application will consist of the addition of 20 µL of 2X concentrated test article solution and, second, of 20 µL of 1X concentrated test article and agonist at 10 µL/s (2 second total application time).
(§3) PAM concentration-response data will be fitted to an equation of the form: % Activation = % L−glutamate EC20 + {(%MAX−%L−glutamateEC20)/[1+(([Test]/; EC50))^N]}, [formula] where [Test] will be the concentration of PAM (test article), EC50 will be the concentration of PAM producing half-maximal activation, N will be the Hill coefficient, % L-glutamate EC20 will be the percentage of the current Elicited with L-glutamate EC20, % MAX is the percentage of the current activated with the highest dose of PAM co-admitted with L-glutamate EC20 and % Activation will be the percentage of the current elicited with L-glutamate EC10-30 at each PAM concentration.
(§4) The maximal amplitude of the evoked currents are measured and defined as Peak Current Amplitude (PCA).

[2] = biological target: T2, GluN2B glutamate receptors (Homo sapiens, UniProt Q05586+Q13224); experiment: Whole-cell patch clamp of mammalian cells (Ionworks Barracuda), positive allosteric modulation (PAM) of NMDA receptor, 2B; type: cell-based; details: for Avg Emax 2B (%) / Emax: % activation of current elicited with EC20 L-glutamate and 30 µM glycine; for EC50: co-application with EC20 L-glutamate and 30 µM glycine, 8-point concentration-response
T2 construct: expressed in transfected cells; host or cells: mammalian cells (line not described for GluN2B)
Description: as §1, §2, §3, §4

T1 sequence (Q12879 23-1464, other chains not shown): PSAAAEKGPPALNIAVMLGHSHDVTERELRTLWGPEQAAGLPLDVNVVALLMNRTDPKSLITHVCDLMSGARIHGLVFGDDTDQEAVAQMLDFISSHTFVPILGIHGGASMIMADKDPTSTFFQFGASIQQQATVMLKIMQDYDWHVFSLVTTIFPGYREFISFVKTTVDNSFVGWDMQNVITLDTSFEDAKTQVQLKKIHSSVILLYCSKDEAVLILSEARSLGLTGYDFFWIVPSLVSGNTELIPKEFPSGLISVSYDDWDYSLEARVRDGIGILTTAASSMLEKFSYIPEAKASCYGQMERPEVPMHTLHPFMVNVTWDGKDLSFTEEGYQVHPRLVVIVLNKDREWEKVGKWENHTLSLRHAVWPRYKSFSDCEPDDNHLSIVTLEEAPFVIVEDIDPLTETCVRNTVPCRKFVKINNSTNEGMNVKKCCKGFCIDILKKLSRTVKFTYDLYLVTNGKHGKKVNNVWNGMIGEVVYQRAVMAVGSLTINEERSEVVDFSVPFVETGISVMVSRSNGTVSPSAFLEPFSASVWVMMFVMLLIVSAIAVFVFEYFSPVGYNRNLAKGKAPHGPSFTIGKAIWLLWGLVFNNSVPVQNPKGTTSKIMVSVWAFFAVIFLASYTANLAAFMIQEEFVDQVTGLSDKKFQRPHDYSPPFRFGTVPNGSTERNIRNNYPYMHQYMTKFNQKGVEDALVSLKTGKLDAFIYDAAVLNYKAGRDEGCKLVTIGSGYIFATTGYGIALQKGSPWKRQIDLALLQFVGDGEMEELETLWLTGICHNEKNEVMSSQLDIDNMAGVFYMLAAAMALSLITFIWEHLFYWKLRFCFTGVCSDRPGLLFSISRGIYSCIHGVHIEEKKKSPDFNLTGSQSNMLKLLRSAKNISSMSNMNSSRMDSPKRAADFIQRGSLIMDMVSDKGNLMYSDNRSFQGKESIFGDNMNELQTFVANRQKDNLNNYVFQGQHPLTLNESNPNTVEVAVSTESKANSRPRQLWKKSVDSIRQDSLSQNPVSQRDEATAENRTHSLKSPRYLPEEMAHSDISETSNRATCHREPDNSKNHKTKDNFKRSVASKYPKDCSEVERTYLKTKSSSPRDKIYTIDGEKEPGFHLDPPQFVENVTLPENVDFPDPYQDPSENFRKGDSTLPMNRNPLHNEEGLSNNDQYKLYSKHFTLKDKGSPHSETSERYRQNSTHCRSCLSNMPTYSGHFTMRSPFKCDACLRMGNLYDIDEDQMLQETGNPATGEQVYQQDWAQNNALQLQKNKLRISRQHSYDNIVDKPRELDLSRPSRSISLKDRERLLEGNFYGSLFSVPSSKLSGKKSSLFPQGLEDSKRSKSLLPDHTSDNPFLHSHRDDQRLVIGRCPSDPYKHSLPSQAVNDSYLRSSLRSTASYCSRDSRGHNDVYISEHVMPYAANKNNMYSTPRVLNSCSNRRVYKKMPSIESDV
T2 sequence (Q13224 27-1484, other chains not shown): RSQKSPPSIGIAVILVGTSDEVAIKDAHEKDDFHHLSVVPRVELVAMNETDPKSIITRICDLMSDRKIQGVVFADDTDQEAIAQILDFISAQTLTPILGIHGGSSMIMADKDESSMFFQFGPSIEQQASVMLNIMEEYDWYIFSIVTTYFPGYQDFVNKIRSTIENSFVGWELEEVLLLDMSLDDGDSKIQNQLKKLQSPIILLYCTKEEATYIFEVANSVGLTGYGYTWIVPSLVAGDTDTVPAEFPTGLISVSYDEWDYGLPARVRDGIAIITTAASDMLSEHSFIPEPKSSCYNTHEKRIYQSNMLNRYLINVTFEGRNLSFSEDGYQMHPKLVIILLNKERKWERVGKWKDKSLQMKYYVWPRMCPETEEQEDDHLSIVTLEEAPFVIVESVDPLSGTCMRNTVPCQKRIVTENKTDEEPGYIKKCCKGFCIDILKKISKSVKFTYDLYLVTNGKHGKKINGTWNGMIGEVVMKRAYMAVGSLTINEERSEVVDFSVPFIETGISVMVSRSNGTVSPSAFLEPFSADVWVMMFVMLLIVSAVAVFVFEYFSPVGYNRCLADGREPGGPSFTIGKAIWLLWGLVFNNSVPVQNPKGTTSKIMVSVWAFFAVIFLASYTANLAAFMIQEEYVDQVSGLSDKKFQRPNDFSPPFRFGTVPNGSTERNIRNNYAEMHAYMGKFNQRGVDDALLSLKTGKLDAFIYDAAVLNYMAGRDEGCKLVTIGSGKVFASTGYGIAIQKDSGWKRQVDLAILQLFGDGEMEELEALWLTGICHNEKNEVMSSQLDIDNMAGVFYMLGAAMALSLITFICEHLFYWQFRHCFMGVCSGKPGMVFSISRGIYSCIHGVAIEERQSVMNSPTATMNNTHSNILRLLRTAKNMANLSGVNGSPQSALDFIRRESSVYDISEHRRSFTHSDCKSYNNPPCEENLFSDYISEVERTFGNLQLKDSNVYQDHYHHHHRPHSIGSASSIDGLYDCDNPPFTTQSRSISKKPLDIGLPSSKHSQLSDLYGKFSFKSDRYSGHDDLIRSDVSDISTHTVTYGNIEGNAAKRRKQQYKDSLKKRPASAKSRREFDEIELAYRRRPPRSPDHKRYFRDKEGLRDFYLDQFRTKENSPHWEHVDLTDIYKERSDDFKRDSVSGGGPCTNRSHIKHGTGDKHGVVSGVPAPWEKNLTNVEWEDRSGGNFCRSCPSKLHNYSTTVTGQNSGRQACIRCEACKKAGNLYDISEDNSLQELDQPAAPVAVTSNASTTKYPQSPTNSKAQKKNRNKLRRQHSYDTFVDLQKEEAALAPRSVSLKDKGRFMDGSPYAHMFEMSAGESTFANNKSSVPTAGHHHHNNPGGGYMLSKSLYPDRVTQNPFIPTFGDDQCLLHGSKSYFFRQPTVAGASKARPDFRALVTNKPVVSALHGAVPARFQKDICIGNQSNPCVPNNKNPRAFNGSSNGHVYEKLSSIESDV

Structure (SMILES)	Avg Emax 2A (%) [1] [%]	EC50 [1] [nM]	Avg Emax 2B (%) [2] [%]	EC50 [2] [nM]	Emax [1] [%]	Emax [2] [%]
C[C@H](CCC(O)(c1ccccc1)C(F)(F)F)[C@H]1CC[C@H]2[C@@H]3CC=C4C[C@@](C)(O)CC[C@]4(C)[C@H]3CC[C@]12C (stereo partly drawn) [Compound 559]	204.3	1570	373.2	1560	–	–
C[C@H](CC[C@@](C)(O)c1ccccc1)[C@H]1CC[C@H]2[C@@H]3CC=C4C[C@@](C)(O)CC[C@]4(C)[C@H]3CC[C@]12C [Compound 7467]	–	–	–	–	20.5	8.8
C[C@H](CC[C@@H](O)C(F)(F)F)[C@H]1CC[C@H]2[C@@H]3CC=C4C[C@](O)(C(F)(F)F)CC[C@]4(C)[C@H]3CC[C@]12C [Compound 3149]	–	–	–	–	292	472
CC(C)[C@H](O)CC[C@@H](C)[C@H]1CC[C@H]2[C@@H]3CC[C@H]4C[C@@](C)(O)CC[C@@H]4[C@H]3CC[C@]12C [Compound 1B75]	278.8	165	233.1	183	–	–
C[C@H](CCCC1(O)CC1)[C@H]1CC[C@H]2[C@@H]3CC[C@H]4C[C@](O)(C(F)(F)F)CC[C@]4(C)[C@H]3CC[C@]12C [Compound 4115]	–	–	–	–	186	195
CC[C@]1(O)CC[C@H]2C(=CC[C@@H]3[C@@H]2CC[C@]2(C)[C@@H]([C@H](C)CCCC4(O)CCC(C)(C)CC4)CC[C@@H]32)C1 [Compound 10317]	56.7	> 10000	59.9	> 10000	–	–
C[C@H](CCC1(O)CCC(C(C)(C)C)CC1)[C@H]1CC[C@H]2[C@@H]3CC[C@H]4C[C@](O)(C(F)(F)F)CC[C@]4(C)[C@H]3CC[C@]12C (stereo partly drawn) [Compound 4360]	–	> 10000	–	> 10000	38.1	14.6
CCC1(O)CCC2C(=CCC3C2CCC2(C)C(C(C)CCC4(O)CCOC4)CCC32)C1 (single isomer, unassigned) [Compound 8602]	–	–	–	–	272	262
C[C@H](CC[C@@H](O)C(C)(C)C)[C@H]1CC[C@H]2[C@@H]3CC[C@@H]4C[C@](O)(C(F)(F)F)CC[C@]4(C)[C@H]3CC[C@]12C [Compound 3788]	–	–	–	–	229	410
C[C@H](CCC1(O)CCCCCC1)[C@H]1CC[C@H]2[C@@H]3CC[C@H]4C[C@](O)(C(F)(F)F)CC[C@]4(C)[C@H]3CC[C@]12C [Compound 3983]	–	–	–	–	176	300
C[C@H](CCC1(O)CCOC1)[C@H]1CC[C@H]2[C@@H]3CC=C4C[C@](O)(C(F)(F)F)CC[C@]4(C)[C@H]3CC[C@]12C (stereo partly drawn) [Compound 10]	–	–	–	–	632	362
C[C@H](CCC[C@@H](C)O)[C@H]1CC[C@H]2[C@@H]3CC[C@H]4C[C@](O)(C(F)(F)F)CC[C@]4(C)[C@H]3CC[C@]12C [Compound 112]	92.6	480	150.8	478	–	–
C[C@H](CC[C@]1(O)CC[C@H](C)CC1)[C@H]1CC[C@H]2[C@@H]3CC[C@H]4C[C@](O)(C(F)(F)F)CC[C@]4(C)[C@H]3CC[C@]12C [Compound 3877]	–	–	–	–	42.4	71.1
